According to ChEMBL document CHEMBL1129075, “Synthesis and binding activity of some pyrazolo[1,5-c]quinazolines as tools to verify an optional binding site of a benzodiazepine receptor ligand” (J Med Chem, 1996):

molecular target: GABA-A receptor; anion channel; assay: Displacement of [3H]flunitrazepam at GABA-A benzodiazepine receptor in rat brain cortical membranes; format: cell membranes, Membrane

Point of comparison: `CCOC(=O)c1cc2c3ccccc3[nH]c(=O)n2n1`, Ki 28 nM. Against it:
- Oc1nc2ccccc2c2cc(-c3cccs3)nn12 — 3.8-fold lower, 7.4 nM
- O=C(O)c1cc2c3ccccc3nc(O)n2n1 — higher, > 10000 nM
- CCOC(=O)c1cc2c3ccccc3nc(S)n2n1 — 120-fold higher, 3290 nM
- Oc1nc2ccccc2c2cc(-c3ccccc3)nn12 — 2.1-fold higher, 59 nM
- c1ccc(-c2cc3c4ccccc4ncn3n2)cc1 — higher, > 10000 nM
- CCOC(=O)c1cc2c3ccccc3ncn2n1 — higher, > 10000 nM
- Cc1nnc(-c2cc3c4ccccc4nc(O)n3n2)o1 — 160-fold higher, 4590 nM
- c1ccc(-c2cc3n(n2)CNc2ccccc2-3)cc1 — 230-fold higher, 6570 nM
- Oc1nc2ccccc2c2cc(-c3ccccn3)nn12 — 1.9-fold higher, 53 nM
- CCOC(=O)c1cc2c3cc(Cl)ccc3nc(O)n2n1 — 1.8-fold higher, 50 nM
- Cn1c(=O)n2nc(-c3ccccc3)cc2c2ccccc21 — higher, > 10000 nM
- Oc1nc2ccccc2c2cc(-c3ccco3)nn12 — 1.8-fold lower, 16 nM
- Oc1nc2ccccc2c2cc(-c3ccc(Cl)cc3)nn12 — 190-fold higher, 5300 nM
- Oc1nc2ccc(Cl)cc2c2cc(-c3ccco3)nn12 — within 1.5-fold, 41 nM
- CCOC(=O)c1cc2c3ccccc3n(CC)c(=O)n2n1 — higher, > 10000 nM
- CCOC(=O)c1cc2c3ccccc3n(C)c(=O)n2n1 — higher, > 10000 nM
- CCOC(=O)c1cc2c(cn1)[nH]c1ccccc12 — 6.2-fold lower, 4.5 nM
- COC(=O)c1cc2c3ccccc3[nH]c(=O)n2n1 — within 1.5-fold, 22 nM
- O=C(Oc1ccccc1)c1cc2c3ccccc3nc(O)n2n1 — 110-fold higher, 3150 nM
- Oc1nc2ccc(Cl)cc2c2cc(-c3ccccc3)nn12 — 3.8-fold higher, 105 nM
- Sc1nc2ccccc2c2cc(-c3ccccc3)nn12 — higher, > 10000 nM
- CCOC(=O)c1cc2n(n1)CNc1ccccc1-2 — 2.5-fold higher, 70 nM
- CC(C)OC(=O)c1cc2c3ccccc3nc(O)n2n1 — 16-fold higher, 434 nM

test system: GABA-A receptor; anion channel; assay: Displacement of [3H]flunitrazepam at GABA-A benzodiazepine receptor in rat brain cortical membranes (insoluble); format: cell membranes, Membrane

With `Oc1nc2ccccc2c2cc(-c3nnco3)nn12` the Ki was “Insoluble”.
